Laboratory results: ChEMBL document CHEMBL1201862, “PubChem BioAssay data set” (2004)
Active and inactive are the calls of the source.

Assays:
[1] = NIH-3T3 fibroblast cytotoxicity, dose response, cytotoxicity control, cell-based, fluorescence, Alamar Blue, secondary assay (AID 2327); type: functional;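 note: NIH-3T3 mouse fibroblasts cultured with fluconazole at 8 µg/mL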
[2] = NIH3T3 cell viability loss – ATP luminescence, mouse fibroblasts, counter-screen, dose response (AID 2010); type: functional, cell-based;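 note: cells exposed to compound for about 90 hours before reading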
[3] = fluconazole-exposed Candida albicans growth modulators – fluorescence, retest, confirmation (AID 2467); type: functional, cell-based
INS1 = experiment: INS-1E survival protection against cytokine death – cell-based, luminescence, retest, dose response (AID 449756); type: functional; details: Rattus norvegicus;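 note: cell death triggered by IL-1 beta plus TNF-alpha plus IFN-gamma mixture; protective hits raise ATP signal compared with cytokine alone wells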
[4] = Trypanosoma cruzi growth suppression in host cells – NIH3T3 host cells, beta-gal luminescence, confirmation (AID 2044); type: functional, cell-based;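 note: intracellular parasites grown in NIH/3T3 mouse fibroblasts as host cells; luminescent beta-galactosidase reporter signal from transgenic T. cruzi replicating inside host cells; inhibitors lower the luminescence signal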
[5] = molecular target: T1, High affinity choline transporter 1 (Homo sapiens, UniProt Q9GZV3); experiment: human choline transporter potentiators, potency – cell-based, 10-point CRC, membrane potential dye, dose response (AID 602376); type: functional
T1 sequence (Q9GZV3 whole entry): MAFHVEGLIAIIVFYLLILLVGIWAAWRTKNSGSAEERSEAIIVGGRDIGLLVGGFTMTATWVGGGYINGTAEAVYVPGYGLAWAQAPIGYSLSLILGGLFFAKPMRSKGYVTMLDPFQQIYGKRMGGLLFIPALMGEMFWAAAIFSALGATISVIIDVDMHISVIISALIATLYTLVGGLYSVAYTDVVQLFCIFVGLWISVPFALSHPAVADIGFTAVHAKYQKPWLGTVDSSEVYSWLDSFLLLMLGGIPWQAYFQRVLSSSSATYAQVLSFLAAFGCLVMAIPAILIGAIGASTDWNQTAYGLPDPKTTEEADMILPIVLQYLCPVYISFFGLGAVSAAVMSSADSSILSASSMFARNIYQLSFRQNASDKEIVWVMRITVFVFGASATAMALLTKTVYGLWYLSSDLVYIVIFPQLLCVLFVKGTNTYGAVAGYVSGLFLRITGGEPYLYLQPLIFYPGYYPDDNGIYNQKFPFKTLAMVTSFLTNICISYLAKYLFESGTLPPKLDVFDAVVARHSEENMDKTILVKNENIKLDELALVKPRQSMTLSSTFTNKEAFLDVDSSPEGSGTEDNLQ

[6] = THP-1 cell cytotoxicity, cytotoxicity control, set 6 (AID 602433); type: functional; details: Mycobacterium tuberculosis
[7] = viability loss in Vero cells – cell-based, purified and synthesized samples, set 8, cytotoxicity control for M. tuberculosis inhibitor project (AID 602431); type: functional; details: Mycobacterium tuberculosis
[8] = HepG2 cell cytotoxicity, cytotoxicity control, set 6 (AID 602432); type: functional; details: Mycobacterium tuberculosis
[9] = molecular target: T2, V-type proton ATPase subunit c' (Saccharomyces cerevisiae S288c, UniProt P32842); experiment: Dose Response with BCECF Assay for V-ATPase inhibitors that increase vacuolar pH, Powder Set 1.; type: functional; details: read-out: EC50_MICROM
[10] = molecular target: T2, V-type proton ATPase subunit c'; experiment: Dose Response of Small Molecules that Regulate V-ATPase Proton Transport in Yeast using pHLuorin, Powder Set1.; type: functional; details: read-out: EC50_MICROM
[11] = viability of uninfected HEp-2 cells – cell-based, HTS, cytotoxicity control for RSV inhibitor project, dose response (AID 2410); type: functional; details: human respiratory syncytial virus
[12] = molecular target: Protein disulfide-isomerase (Homo sapiens, UniProt P07237); experiment: inhibition of PDI-driven insulin aggregation – biochemical, turbidity, absorbance, cherry-picked samples, dose response (AID 602350); type: functional
Orexin receptor type 2 [13] = molecular target: T3, Orexin receptor type 2 (Homo sapiens, UniProt O43614); experiment: Counterscreen assay for antagonists of the orexin 1 receptor (OX1R; HCRTR1): Homogeneous Time Resolved Fluorescence (HTRF)-based cell-based dose response assay for antagonists of the orexin 2 receptor (OX2R; HCRTR2), run by assay provider.; type: functional
[14] = molecular target: T4, Corticotropin-releasing factor receptor 2/Corticotropin-releasing factor-binding protein (Homo sapiens, UniProt P24387+Q13324); experiment: activators of CRF receptor 2 with binding protein – uHTS hits, confirmation (AID 602473); type: functional; details: read-out: EC50_Mean
T4 sequence (Q13324 whole entry): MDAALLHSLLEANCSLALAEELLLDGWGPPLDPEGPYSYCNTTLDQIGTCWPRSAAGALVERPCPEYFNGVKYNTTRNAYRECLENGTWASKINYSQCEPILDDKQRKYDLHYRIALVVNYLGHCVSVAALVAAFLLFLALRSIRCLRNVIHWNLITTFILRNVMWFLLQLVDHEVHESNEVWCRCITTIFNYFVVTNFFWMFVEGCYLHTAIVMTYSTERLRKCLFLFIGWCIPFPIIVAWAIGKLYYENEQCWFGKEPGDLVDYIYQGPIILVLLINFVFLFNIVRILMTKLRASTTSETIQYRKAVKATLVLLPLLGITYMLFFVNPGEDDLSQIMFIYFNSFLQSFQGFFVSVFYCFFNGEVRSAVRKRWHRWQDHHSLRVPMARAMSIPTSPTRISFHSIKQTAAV
T4 sequence (P24387 whole entry): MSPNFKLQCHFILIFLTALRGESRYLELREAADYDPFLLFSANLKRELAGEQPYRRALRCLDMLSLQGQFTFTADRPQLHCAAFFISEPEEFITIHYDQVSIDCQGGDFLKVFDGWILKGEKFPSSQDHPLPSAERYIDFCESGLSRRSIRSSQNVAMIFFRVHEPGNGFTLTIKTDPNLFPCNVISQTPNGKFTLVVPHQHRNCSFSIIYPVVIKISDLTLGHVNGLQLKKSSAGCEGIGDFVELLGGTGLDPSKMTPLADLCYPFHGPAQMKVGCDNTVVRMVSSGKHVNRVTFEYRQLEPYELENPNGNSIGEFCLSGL

Orexin receptor type 2 [15] = molecular target: T3, Orexin receptor type 2; experiment: Counterscreen assay for antagonists of the orexin 1 receptor (OX1R; HCRTR1): Fluorescence-based cell-based dose response assay for antagonists of the orexin 2 receptor (OX2R; HCRTR2), run by assay provider.; type: functional
[16] = molecular target: T5, Orexin/Hypocretin receptor type 1 (Homo sapiens, UniProt O43613); experiment: (§1) Fluorescence-based cell-based high throughput dose response assay for antagonists of the orexin 1 receptor (OX1R; HCRTR1). [Related pubchem assays (depositor defined):AID434989, AID435008, AID463079, AID485270, AID492963, AID492964, AID492965, AID493232, AID504717, AID504718]; type: functional
[17] = (§2) Counterscreen for antagonists of the orexin 1 receptor (OX1R; HCRTR1): Fluorescence-based cell-based high throughput dose response assay to identify antagonists of the parental CHO cell line. [Related pubchem assays (depositor defined):AID434989, AID435008, AID463079, AID485270, AID492963, AID492964, AID492965, AID493232, AID504699, AID504701]; type: functional
CHO-K1 = experiment: as §2, with “Homogeneous time resolved fluorescence (HTRF)-based” for “Fluorescence-based”, “cell-based” for “cell-based high throughput”, “CHO-K1” for “CHO”; type: functional; details: Cricetulus griseus
[18] = molecular target: T5, Orexin/Hypocretin receptor type 1; experiment: as §1, with “Homogeneous Time Resolved Fluorescence (HTRF)-based” for “Fluorescence-based”; type: functional

T2 sequence (P32842 whole entry): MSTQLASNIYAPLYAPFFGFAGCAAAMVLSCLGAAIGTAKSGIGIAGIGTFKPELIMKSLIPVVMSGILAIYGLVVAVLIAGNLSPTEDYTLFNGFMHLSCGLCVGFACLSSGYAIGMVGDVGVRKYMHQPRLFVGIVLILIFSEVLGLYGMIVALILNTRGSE
T3 sequence (O43614 whole entry): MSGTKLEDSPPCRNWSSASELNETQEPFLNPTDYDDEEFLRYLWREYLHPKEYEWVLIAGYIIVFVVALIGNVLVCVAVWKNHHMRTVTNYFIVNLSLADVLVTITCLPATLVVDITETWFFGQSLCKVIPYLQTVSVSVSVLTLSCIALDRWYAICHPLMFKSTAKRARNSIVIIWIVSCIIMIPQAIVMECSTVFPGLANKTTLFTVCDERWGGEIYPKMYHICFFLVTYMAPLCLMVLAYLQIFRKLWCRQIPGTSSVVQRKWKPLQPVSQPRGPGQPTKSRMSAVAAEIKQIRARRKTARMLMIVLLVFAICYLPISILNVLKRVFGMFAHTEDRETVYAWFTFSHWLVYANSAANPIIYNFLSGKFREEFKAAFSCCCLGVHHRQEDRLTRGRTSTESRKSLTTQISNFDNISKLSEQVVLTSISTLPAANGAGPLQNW
T5 sequence (O43613 whole entry): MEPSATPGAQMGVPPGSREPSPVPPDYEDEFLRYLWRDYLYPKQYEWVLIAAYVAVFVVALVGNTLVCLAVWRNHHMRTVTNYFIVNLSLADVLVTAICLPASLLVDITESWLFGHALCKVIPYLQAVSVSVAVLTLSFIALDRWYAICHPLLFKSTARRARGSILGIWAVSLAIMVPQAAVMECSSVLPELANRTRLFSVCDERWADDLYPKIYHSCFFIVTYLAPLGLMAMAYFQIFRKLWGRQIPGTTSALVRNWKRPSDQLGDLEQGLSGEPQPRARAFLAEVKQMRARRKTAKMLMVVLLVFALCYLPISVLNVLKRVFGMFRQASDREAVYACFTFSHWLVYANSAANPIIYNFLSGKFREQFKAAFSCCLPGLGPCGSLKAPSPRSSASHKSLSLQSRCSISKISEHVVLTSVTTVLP
Sequence of Protein disulfide-isomerase (P07237 whole entry): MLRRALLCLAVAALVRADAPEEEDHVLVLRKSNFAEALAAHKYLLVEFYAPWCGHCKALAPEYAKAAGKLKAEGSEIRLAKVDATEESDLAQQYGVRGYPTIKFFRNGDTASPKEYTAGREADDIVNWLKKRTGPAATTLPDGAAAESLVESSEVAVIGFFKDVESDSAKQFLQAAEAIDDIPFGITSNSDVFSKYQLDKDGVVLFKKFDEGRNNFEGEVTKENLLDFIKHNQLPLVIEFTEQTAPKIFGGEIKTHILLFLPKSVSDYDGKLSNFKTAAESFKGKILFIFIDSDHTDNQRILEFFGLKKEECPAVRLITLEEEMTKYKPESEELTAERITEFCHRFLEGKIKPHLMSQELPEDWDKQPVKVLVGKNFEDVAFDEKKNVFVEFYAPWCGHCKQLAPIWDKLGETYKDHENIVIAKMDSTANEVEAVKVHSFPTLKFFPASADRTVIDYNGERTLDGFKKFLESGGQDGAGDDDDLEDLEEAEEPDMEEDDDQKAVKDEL

## COc1ccc(C)cc1Nc1n[n+](-c2ccccc2)c(-c2ccc(OC)c(OC)c2OC)s1
[1]
  EC50: > 160 µM (inactive)
[2]
  EC50: > 30 µM (not active)
[3]
  EC50: 2.71 µM (active)
INS1
  AC50: 11.2 µM (active)
[4]
  EC50: 0.215 µM (active)
[5]
  EC50: 12.1 µM (active)

## O=C(NCc1ccc(C(=O)N2CCC(c3ccccc3)CC2)cc1)Nc1ccc(Cl)cc1
[6]
  CC50: 24.7 µM (active)
[7]
  CC50: 40.1 µM (active)
[8]
  CC50: 35 µM (active)

## O=C(c1ccc([N+](=O)[O-])o1)N1CCN(c2nc3c(Cl)cccc3s2)CC1
[2]
  EC50: 20.6 µM (active)
[9]
  EC50: 0.86 µM (active)
[10]
  EC50: 3.53 µM (active)
[4]
  EC50: 0.254 µM (active)
[11]
  CC50: > 50 µM (active)

## Cc1c(O)ccc2c(CN3CCN(CCO)CC3)cc(=O)oc12
[12]
  AC50: 8.66 µM (active)

## Cc1cc(-c2ccc(N3CCOCC3)cc2)nc2ccccc12
Orexin receptor type 2 [13]
  IC50: 19.3 µM (inactive)
[14]
  EC50: > 53 µM (inactive)
Orexin receptor type 2 [15]
  IC50: > 88.8 µM (inactive)
[16]
  IC50: 5.3 µM (active)
[17]
  IC50: > 49.8 µM (inactive)
CHO-K1
  IC50: > 66.2 µM (inactive)
[18]
  IC50: 2.37 µM (active)
